Assay results as given in patent US11331327B2, “Antibacterial use of halogenated salicylanilides” (UNION therapeutics A/S, priority 2014, dated 2022).
≈ marks a conversion by molar mass, not a printed value. Where two headings read alike, the source gives them in different places.

System: S. aureus clinical isolates and S. aureus ATCC 29213
Assay: MIC assay according to CLSI criteria, Example 2, S. aureus strains
Assay type: cell-based, Staphylococcus aureus
Settings: Staphylococcus aureus, read-out: MIC
Protocol: Strains were conserved in Luria Bertani (LB) Broth (S. aureus) or Brain Heart Infusion (BHI) (S. pyogenes) supplemented with glycerol 15% (v/v) at −80° C., and reactivated by isolation on LB (S. aureus) or BHI (S. pyogenes) agar plates. Strains were cultivated in Mueller Hinton (MH) Broth-cation adjusted (S. aureus) or BHI (S. pyogenes). All strains were cultivated aerobically (microaerobically for S. pyogenes strains) at 37° C.
Bacterial cultures were stopped in their exponential growth phase and plates were inoculated with the approximate concentration of 5×10^5 cells per well. Plates were incubated at 37° C. for 18 hours (S. aureus) or 24 hours (S. pyogenes).

C/C(=C\C(=O)OCCCCCCCCC(=O)O)C[C@@H]1OC[C@H](C[C@@H]2O[C@H]2[C@@H](C)[C@H](C)O)[C@@H](O)[C@H]1O [Mupirocin]
MIC (ATCC29213, strain 9-1862936): 0.25 µg/mL (≈ 0.499 µM)
MIC (ATCC29213, strain 9-2625962): 0.5 µg/mL (≈ 0.999 µM)
MIC (ATCC29213, strain 9-2642158): 0.25 µg/mL (≈ 0.499 µM)
MIC (ATCC29213, strain 9-2955245): 0.25 µg/mL (≈ 0.499 µM)
MIC (ATCC29213, strain 9-26422166): 0.25 µg/mL (≈ 0.499 µM)
MIC (ATCC29213, strain 000040C): 0.25 µg/mL (≈ 0.499 µM)
MIC (ATCC29213, strain 000041C): 0.25 µg/mL (≈ 0.499 µM)
MIC (ATCC29213, strain 000274T): 0.5 µg/mL (≈ 0.999 µM)
MIC (ATCC29213, strain 114660U): 0.25 µg/mL (≈ 0.499 µM)
MIC (ATCC29213, strain 115015T): 0.5 µg/mL (≈ 0.999 µM)
MIC (ATCC29213, strain 115242C): 0.25 µg/mL (≈ 0.499 µM)
MIC (ATCC29213, strain 115263C): 0.25 µg/mL (≈ 0.499 µM)
MIC (ATCC29213, strain 115268C): 0.5 µg/mL (≈ 0.999 µM)
MIC (ATCC29213, strain 115273C): 0.25 µg/mL (≈ 0.499 µM)
MIC (ATCC29213, strain 115295C): 0.25 µg/mL (≈ 0.499 µM)
MIC (ATCC29213, strain 115303C): 0.25 µg/mL (≈ 0.499 µM)
MIC (ATCC29213, strain 115370U): 0.125 µg/mL (≈ 0.25 µM)
MIC (ATCC29213, strain 115427C): 0.25 µg/mL (≈ 0.499 µM)
MIC (ATCC29213, strain 115445C): 0.25 µg/mL (≈ 0.499 µM)
MIC (ATCC29213, strain 115561C): 0.5 µg/mL (≈ 0.999 µM)
MIC (ATCC29213, strain 115584D): 0.5 µg/mL (≈ 0.999 µM)
MIC (ATCC29213, strain 115628T): 0.25 µg/mL (≈ 0.499 µM)
MIC (ATCC29213, strain 115690C): 0.125 µg/mL (≈ 0.25 µM)
MIC (ATCC29213, strain 115691T): 0.25 µg/mL (≈ 0.499 µM)
MIC (ATCC29213, strain 115740E): 0.25 µg/mL (≈ 0.499 µM)
MIC (ATCC29213, strain 115810E): 0.25 µg/mL (≈ 0.499 µM)
MIC (ATCC29213, strain 115903T): 0.5 µg/mL (≈ 0.999 µM)
MIC (ATCC29213, strain 116122T): 0.5 µg/mL (≈ 0.999 µM)
MIC (ATCC29213, strain ATCC 29213): 0.125 µg/mL (≈ 0.25 µM)
MIC (ATCC29213, strain E5-1029252): 0.5 µg/mL (≈ 0.999 µM)
MIC (ATCC29213, strain E5-1029558): 0.5 µg/mL (≈ 0.999 µM)
MIC (ATCC29213, strain E5-1030440): 0.25 µg/mL (≈ 0.499 µM)
MIC (ATCC29213, strain E5-1030469): 0.25 µg/mL (≈ 0.499 µM)
MIC (ATCC29213, strain E5-1030472): 0.5 µg/mL (≈ 0.999 µM)
MIC (ATCC29213, strain E5-1030482): 0.25 µg/mL (≈ 0.499 µM)
MIC (ATCC29213, strain E5-1033076 (first line, r202)): 0.25 µg/mL (≈ 0.499 µM)
MIC (ATCC29213, strain E5-1033076 (second line, r203)): 0.25 µg/mL (≈ 0.499 µM)
MIC (ATCC29213, strain E5-1033088): 0.25 µg/mL (≈ 0.499 µM)
MIC (ATCC29213, strain E5-1033091): 0.25 µg/mL (≈ 0.499 µM)
MIC (ATCC29213, strain E5-1035277): 0.5 µg/mL (≈ 0.999 µM)
MIC (ATCC29213, strain E5-1035284): 0.25 µg/mL (≈ 0.499 µM)
MIC (ATCC29213, strain E5-1035775): 0.25 µg/mL (≈ 0.499 µM)
MIC (ATCC29213, strain E5-1035779): 0.5 µg/mL (≈ 0.999 µM)
MIC (ATCC29213, strain E5-1037958): 0.5 µg/mL (≈ 0.999 µM)
MIC (ATCC29213, strain E5-1037971): 0.25 µg/mL (≈ 0.499 µM)
MIC (ATCC29213, strain E5-1038279): 0.25 µg/mL (≈ 0.499 µM)
MIC (ATCC29213, strain E5-1038286): 0.5 µg/mL (≈ 0.999 µM)
MIC (ATCC29213, strain E5-1038294): 0.25 µg/mL (≈ 0.499 µM)
MIC (ATCC29213, strain E5-1039684): 0.25 µg/mL (≈ 0.499 µM)
MIC (ATCC29213, strain E5-1039697): 0.25 µg/mL (≈ 0.499 µM)
MIC (ATCC29213, strain E5-1041977): 0.5 µg/mL (≈ 0.999 µM)
MIC (ATCC29213, strain E5-1041979): 0.5 µg/mL (≈ 0.999 µM)
MIC (ATCC29213, strain E5-1041980): 0.25 µg/mL (≈ 0.499 µM)
MIC (ATCC29213, strain E5-1041987): 0.25 µg/mL (≈ 0.499 µM)
MIC (ATCC29213, strain E5-1043184): 0.5 µg/mL (≈ 0.999 µM)
MIC (ATCC29213, strain E5-1043668): 0.25 µg/mL (≈ 0.499 µM)
MIC (ATCC29213, strain E5-1045179): 0.25 µg/mL (≈ 0.499 µM)
MIC (ATCC29213, strain E5-1046019): 0.25 µg/mL (≈ 0.499 µM)
MIC (ATCC29213, strain E5-1046020): 0.25 µg/mL (≈ 0.499 µM)
MIC (ATCC29213, strain E5-1046039): 0.25 µg/mL (≈ 0.499 µM)
MIC (ATCC29213, strain E5-1046070): 0.5 µg/mL (≈ 0.999 µM)
MIC (ATCC29213, strain E5-1046074): 0.25 µg/mL (≈ 0.499 µM)
MIC (ATCC29213, strain E5-1046085): 0.5 µg/mL (≈ 0.999 µM)
MIC (ATCC29213, strain E5-1046096): 0.5 µg/mL (≈ 0.999 µM)
MIC (ATCC29213, strain E5-1046296): 1 µg/mL (≈ 2 µM)
MIC (ATCC29213, strain E5-1046297): 0.25 µg/mL (≈ 0.499 µM)
MIC (ATCC29213, strain E5-1046298): 0.25 µg/mL (≈ 0.499 µM)
MIC (ATCC29213, strain E5-1046723): 0.25 µg/mL (≈ 0.499 µM)
MIC (ATCC29213, strain E5-1047585): 0.25 µg/mL (≈ 0.499 µM)
MIC (ATCC29213, strain E5-1047606): 0.5 µg/mL (≈ 0.999 µM)
MIC (ATCC29213, strain E5-1047924): 0.5 µg/mL (≈ 0.999 µM)
MIC (ATCC29213, strain E5-1048204): 0.25 µg/mL (≈ 0.499 µM)
MIC (ATCC29213, strain E5-1048428): 0.25 µg/mL (≈ 0.499 µM)
MIC (ATCC29213, strain E5-1048654): 0.25 µg/mL (≈ 0.499 µM)
MIC (ATCC29213, strain E5-1048670): 0.5 µg/mL (≈ 0.999 µM)
MIC (ATCC29213, strain EEFIC 01): 0.125 µg/mL (≈ 0.25 µM)
MIC (ATCC29213, strain EEFIC 02): 0.125 µg/mL (≈ 0.25 µM)
MIC (ATCC29213, strain K000772): 0.125 µg/mL (≈ 0.25 µM)
MIC (ATCC29213, strain K000796): 0.5 µg/mL (≈ 0.999 µM)
MIC (ATCC29213, strain K000863): 0.5 µg/mL (≈ 0.999 µM)
MIC (ATCC29213, strain K000864): 0.25 µg/mL (≈ 0.499 µM)
MIC (ATCC29213, strain K000866): 0.5 µg/mL (≈ 0.999 µM)
MIC (ATCC29213, strain K115498): 0.5 µg/mL (≈ 0.999 µM)
MIC (ATCC29213, strain K115688): 0.25 µg/mL (≈ 0.499 µM)
MIC (ATCC29213, strain K115689): 0.25 µg/mL (≈ 0.499 µM)
MIC (ATCC29213, strain R000019): 0.5 µg/mL (≈ 0.999 µM)
MIC (ATCC29213, strain R000020): 0.5 µg/mL (≈ 0.999 µM)
MIC (ATCC29213, strain R000024): 0.5 µg/mL (≈ 0.999 µM)
MIC (ATCC29213, strain U115579): 0.5 µg/mL (≈ 0.999 µM)
MIC (ATCC 29213 / MRSA, strain MRSA 01): 0.25 µg/mL (≈ 0.499 µM)
MIC (ATCC 29213 / MRSA, strain MRSA 02): 0.25 µg/mL (≈ 0.499 µM)
MIC (ATCC 29213 / MRSA, strain MRSA 03): 0.25 µg/mL (≈ 0.499 µM)
MIC (ATCC 29213 / MRSA, strain MRSA 04): 0.25 µg/mL (≈ 0.499 µM)
MIC (ATCC 29213 / MRSA, strain MRSA 05): 0.125 µg/mL (≈ 0.25 µM)
MIC (ATCC 29213 / MRSA, strain MRSA 06): 0.25 µg/mL (≈ 0.499 µM)
MIC (ATCC 29213 / MRSA, strain MRSA 07): 0.25 µg/mL (≈ 0.499 µM)
MIC (ATCC 29213 / MRSA, strain MRSA 08): > 16 µg/mL
MIC (ATCC 29213 / MRSA, strain MRSA 09): 0.25 µg/mL (≈ 0.499 µM)
MIC (ATCC 29213 / MRSA, strain MRSA 10): 0.25 µg/mL (≈ 0.499 µM)
MIC (ATCC 29213 / MRSA, strain MRSA 11): 0.5 µg/mL (≈ 0.999 µM)
MIC (ATCC 29213 / MRSA, strain MRSA 12): 0.125 µg/mL (≈ 0.25 µM)
MIC (ATCC 29213 / MRSA, strain MRSA 13): 0.25 µg/mL (≈ 0.499 µM)
MIC (ATCC 29213 / MRSA, strain MRSA 14): 0.125 µg/mL (≈ 0.25 µM)
